# Assay results: patent US8927717B1, “Thiochromeno[2,3-c]quinolin-12-one derivatives, preparation method and application thereof” (National Defense Medical Center, priority 2014, dated 2015)
# How the values were obtained:
# SK-OV-3 = format: cell-based; details: Ovarian cancer; 10^−5 molar; 48 hours; SRB
# MDA-MB-231/ATCC = format: cell-based; details: Breast cancer; 10^−5 molar; 48 hours; SRB
# SF-295 = format: cell-based; details: CNS cancer; 10^−5 molar; 48 hours; SRB
# NCI-H226 = format: cell-based; details: Non-small cell lung cancer; 10^−5 molar; 48 hours; SRB
# A498 = format: cell-based; details: Renal cancer; 10^−5 molar; 48 hours; SRB
# KM12 = assay: cells; format: cell-based; details: Colon cancer; 10^−5 molar; 48 hours; SRB
# OVCAR-3 = format: cell-based; details: Ovarian cancer; 10^−5 molar; 48 hours; SRB
# T-47D = format: cell-based; details: Breast cancer; 10^−5 molar; 48 hours; SRB
# COLO 205 = format: cell-based; details: Colon cancer; 10^−5 molar; 48 hours; SRB
# MALME-3M = format: cell-based; details: Melanoma; 10^−5 molar; 48 hours; SRB
# NCI-H460 = format: cell-based; details: Non-small cell lung cancer; 10^−5 molar; 48 hours; SRB
# NCI-H522 = format: cell-based; details: Non-small cell lung cancer; 10^−5 molar; 48 hours; SRB
# U251 = format: cell-based; details: CNS cancer; 10^−5 molar; 48 hours; SRB
# DU-145 = format: cell-based; details: Prostate cancer; 10^−5 molar; 48 hours; SRB
# NCI-H23 = format: cell-based; details: Non-small cell lung cancer; 10^−5 molar; 48 hours; SRB
# LOX IMVI = format: cell-based; details: Melanoma; 10^−5 molar; 48 hours; SRB
# SK-MEL-5 = format: cell-based; details: Melanoma; 10^−5 molar; 48 hours; SRB
# CCRF-CEM = format: cell-based; details: Leukemia; 10^−5 molar; 48 hours; SRB
# ACHN = format: cell-based; details: Renal cancer; 10^−5 molar; 48 hours; SRB
# NCI/ADR-RES = format: cell-based; details: Ovarian cancer; 10^−5 molar; 48 hours; SRB
# OVCAR-4 = format: cell-based; details: Ovarian cancer; 10^−5 molar; 48 hours; SRB
# UACC-62 = format: cell-based; details: Melanoma; 10^−5 molar; 48 hours; SRB
# RXF 393 = format: cell-based; details: Renal cancer; 10^−5 molar; 48 hours; SRB
# SF-539 = format: cell-based; details: CNS cancer; 10^−5 molar; 48 hours; SRB
# MOLT-4 = format: cell-based; details: Leukemia; 10^−5 molar; 48 hours; SRB
# MDA-MB-486 = format: cell-based; details: Breast cancer; 10^−5 molar; 48 hours; SRB
# OVCAR-8 = format: cell-based; details: Ovarian cancer; 10^−5 molar; 48 hours; SRB
# MDA-MB-435 = format: cell-based; details: Melanoma; 10^−5 molar; 48 hours; SRB
# SF-268 = format: cell-based; details: CNS cancer; 10^−5 molar; 48 hours; SRB
# SK-MEL-28 = format: cell-based; details: Melanoma; 10^−5 molar; 48 hours; SRB
# 60 cancer cell lines = assay: NCI 60-cell screen, SRB, whole panel (mean, delta, range); format: cell-based; details: 10^−5 molar, 48 hours, SRB
# BT-549 = format: cell-based; details: Breast cancer; 10^−5 molar; 48 hours; SRB
# SNB-75 = format: cell-based; details: CNS cancer; 10^−5 molar; 48 hours; SRB
# PC-3 = format: cell-based; details: Prostate cancer; 10^−5 molar; 48 hours; SRB
# M14 = format: cell-based; details: Melanoma; 10^−5 molar; 48 hours; SRB
# SR = format: cell-based; details: Leukemia; 10^−5 molar; 48 hours; SRB
# CAKI-1 = format: cell-based; details: Renal cancer; 10^−5 molar; 48 hours; SRB
# UO-31 = format: cell-based; details: Renal cancer; 10^−5 molar; 48 hours; SRB
# SNB-19 = format: cell-based; details: CNS cancer; 10^−5 molar; 48 hours; SRB
# IGROV1 = format: cell-based; details: Ovarian cancer; 10^−5 molar; 48 hours; SRB
# HCC-2998 = format: cell-based; details: Colon cancer; 10^−5 molar; 48 hours; SRB
# HCT-15 = format: cell-based; details: Colon cancer; 10^−5 molar; 48 hours; SRB
# SN12C = format: cell-based; details: Renal cancer; 10^−5 molar; 48 hours; SRB
# UACC-257 = format: cell-based; details: Melanoma; 10^−5 molar; 48 hours; SRB
# HL-60(TB) = format: cell-based; details: Leukemia; 10^−5 molar; 48 hours; SRB
# OVCAR-5 = format: cell-based; details: Ovarian cancer; 10^−5 molar; 48 hours; SRB
# HS 578T = format: cell-based; details: Breast cancer; 10^−5 molar; 48 hours; SRB
# SW-620 = format: cell-based; details: Colon cancer; 10^−5 molar; 48 hours; SRB
# MCF7 = format: cell-based; details: Breast cancer; 10^−5 molar; 48 hours; SRB
# 786-0 = format: cell-based; details: Renal cancer; 10^−5 molar; 48 hours; SRB
# HT29 = format: cell-based; details: Colon cancer; 10^−5 molar; 48 hours; SRB
# HCT-116 = format: cell-based; details: Colon cancer; 10^−5 molar; 48 hours; SRB
# K-562 = format: cell-based; details: Leukemia; 10^−5 molar; 48 hours; SRB
# TK-10 = format: cell-based; details: Renal cancer; 10^−5 molar; 48 hours; SRB
# A549/ATCC = format: cell-based; details: Non-small cell lung cancer; 10^−5 molar; 48 hours; SRB
# RPMI-8226 = format: cell-based; details: Leukemia; 10^−5 molar; 48 hours; SRB
# HOP-62 = format: cell-based; details: Non-small cell lung cancer; 10^−5 molar; 48 hours; SRB
smiles,measurement,setting,value
"CCC(CO)Nc1nc2ccccc2c2c(=O)c3cc(Cl)ccc3sc12 (stereo not drawn) [Compound N12, 10-Chloro-6-((1-hydroxybutan-2-yl)amino)-12H-thiochromeno[2,3-c]quinolin-12-one]",Growth percent SK-OV-3,SK-OV-3,58.93%
same,Growth percent MDA-MB-231/ATCC,MDA-MB-231/ATCC,58.29%
same,Growth percent SF-295,SF-295,89.58%
same,Growth percent NCI-H226,NCI-H226,77.56%
same,Growth percent A498,A498,74.62%
same,Growth percent KM12,KM12,82.37%
same,Growth percent OVCAR-3,OVCAR-3,96.34%
same,Growth percent T-47D,T-47D,46.94%
same,Growth percent COLO 205,COLO 205,68.37%
same,Growth percent MALME-3M,MALME-3M,58.66%
same,Growth percent NCI-H460,NCI-H460,83.78%
same,Growth percent NCI-H522,NCI-H522,64.07%
same,Growth percent U251,U251,74.49%
same,Growth percent DU-145,DU-145,87.04%
same,Growth percent NCI-H23,NCI-H23,81.25%
same,Growth percent LOX IMVI,LOX IMVI,79.25%
same,Growth percent SK-MEL-5,SK-MEL-5,87.19%
same,Growth percent CCRF-CEM,CCRF-CEM,70.00%
same,Growth percent ACHN,ACHN,69.12%
same,Growth percent NCI/ADR-RES,NCI/ADR-RES,77.02%
same,Growth percent OVCAR-4,OVCAR-4,83.23%
same,Growth percent UACC-62,UACC-62,76.17%
same,Growth percent RXF 393,RXF 393,71.61%
same,Growth percent SF-539,SF-539,83.86%
same,Growth percent MOLT-4,MOLT-4,61.79%
same,Growth percent MDA-MB-486,MDA-MB-486,80.85%
same,Growth percent OVCAR-8,OVCAR-8,68.74%
same,Growth percent MDA-MB-435,MDA-MB-435,92.11%
same,Growth percent SF-268,SF-268,76.71%
same,Growth percent SK-MEL-28,SK-MEL-28,82.86%
same,"Growth percent, Delta",60 cancer cell lines; delta over the cell panel,42.51%
same,"Growth percent, Mean",60 cancer cell lines; mean over the cell panel,73.52%
same,"Growth percent, Range",60 cancer cell lines; range over the cell panel,68.60%
same,Growth percent BT-549,BT-549,85.96%
same,Growth percent SNB-75,SNB-75,31.01%
same,Growth percent PC-3,PC-3,58.35%
same,Growth percent M14,M14,85.38%
same,Growth percent SR,SR,62.38%
same,Growth percent CAKI-1,CAKI-1,59.29%
same,Growth percent UO-31,UO-31,51.01%
same,Growth percent SNB-19,SNB-19,93.87%
same,Growth percent IGROV1,IGROV1,66.54%
same,Growth percent HCC-2998,HCC-2998,99.61%
same,melting point,,203 to 204 °C
same,Growth percent HCT-15,HCT-15,77.58%
same,Growth percent SN12C,SN12C,81.98%
same,Growth percent UACC-257,UACC-257,95.71%
same,Growth percent HL-60(TB),HL-60(TB),96.29%
same,Growth percent OVCAR-5,OVCAR-5,88.01%
same,Growth percent HS 578T,HS 578T,52.66%
same,Growth percent SW-620,SW-620,84.32%
same,Growth percent MCF7 (Table 2: MCF),MCF7,40.92%
same,Growth percent 786-0,786-0,82.86%
same,Growth percent HT29,HT29,78.24%
same,Growth percent HCT-116,HCT-116,73.42%
same,Growth percent K-562,K-562,46.86%
same,Growth percent TK-10,TK-10,77.45%
same,Growth percent A549/ATCC,A549/ATCC,69.86%
same,Growth percent RPMI-8226,RPMI-8226,73.50%
same,Growth percent HOP-62,HOP-62,55.91%
